Measured values published in patent US10233143B2, “Pseudoceramide compound, and external use skin preparation composition containing same” (AE KYUNG INDUSTRIAL CO., LTD, priority 2014, dated 2019).

Key:
[1] = Strengthening internal hair tissues: hair breakage after 10,000 brushings (Experimental Example 3); conditions: for Numbers of broken hairs: hair essence with 0.2 wt % of the substance applied once, among 4,000 strands after 10,000 brushings, untreated 89; for Hair breakage improvement rate: hair essence with 0.2 wt % of the substance, versus untreated hairs
Experimental: A formulation of hair essence including novel compounds comprising pseudoceramide prepared in Example 7, a formulation of hair essence including conventional pseudoceramide prepared in Comparative Example 5, a formulation of hair essence without pseudoceramide prepared in Comparative Example 6 were evaluated in view of internal hair tissue strengthening effect. The internal hair tissue strengthening effect was tested in the following manner.
After hairs damaged by permanent weaving, bleaching, shampooing, thermal stimulation, brushing and so on were prepared, ceramide administered essence was applied once to the damaged hairs. In order to evaluate strengths of internal tissues of the hair, after the hair was brushed 10,000 times, a hair breakage improvement rate was calculated using the number of broken strands of untreated hairs and the number of broken strands of treated hairs. The number of hairs used in the experiment was 4,000 in total for each sample.
The hair breakage improvement rate was calculated by the following equation: Breakage improvement rate (%)=(Number of broken strands of untreated hairs−Number of broken strands of treated hairs)/Number of broken strands of untreated hairs

[2] = system: HaCaT human keratinocyte cells; assay: Cytotoxicity assay (MTT); assay type: cell-based; conditions: one day incubation, absorbance 540 nm
Experimental: Extents of citotoxicity were measured using HaCaT human keratinocyte cells. The HaCaT human keratinocyte cells were maintained in Dulbecco's modified Eagle's medium (DMEM) supplemented with 10% fetal bovine serum (FBS)] and then seeded onto 96-well plates with a concentration of 6×10^3 cells to be cultured at 37° C. in a 5% CO2 atmosphere for one day. Then, the DMEM was replaced with a new one and samples were treated by a serial dilution method with various concentrations ranging from 2.5 mM and then incubated for one day. After one day, 10 μl MTT reagents were treated with a 5 mg/mL concentration in media and the HaCaT cells were then incubated at 37° C. in a 5% CO2 atmosphere for 4 hours. The media were removed and 150 μl DMSO reagent was added to each well to dissolve violet crystals. Absorbance at 540 nm was measured.
A reaction solution without a sample was used as a negative control group. A cell growth rate for each sample solution was calculated by the following equation (1) and the results are shown in FIG. 7: Cell growth rate (%)=A/B×100 (1)
B: Absorbance of negative control group

[3] = system: Propionibacterium acnes (ATCC 6919); assay: Minimum inhibitory concentration against Propionibacterium acnes (agar medium); assay type: cell-based; conditions: media treated with the sample
Experimental: To investigate anti-microvial activity of the pseudoceramide compound represented by Formula 3 according to the present invention against propionibacterium acnes, the minimum inhibitory concentration (MIC) of the pseudoceramide sample was measured in the following manner. The sample to be tested was added to reinforced clostridial agar medium (commercially available from Difco Co.) in an amount of 0.06 to 1.0%, followed by solidification of the medium. The suspension of pre-incubated Propionibacterium acnes ATCC 6919 was streaked on the surface of the medium and the medium was incubated for 3 days at 37° C. under anaerobic condition.

Structure (SMILES) | Numbers of broken hairs [1] | Hair breakage improvement rate [1] [%] | half maximum inhibitory concentration (IC50), cell growth rate [2] [ppm] | growth of strain in treated media (FIG. 8) [3]
CCCCCCCC/C=C/CCCCCCCCNC(=O)CC(/C=C/CCCCCCCCCC)C(=O)O (stereo not drawn) [Formula 3] | 31 | 64 | 516.83 | no strain was expressed
CCCCCCCCCCCCCCCCCC(=O)N[C@@H](CO)[C@H](O)[C@H](O)CCCCCCCCCCCCCC [ceramide 3, reference compound] | 63 | 27 |  | 
